Converted amounts (≈) assume the structure as drawn.
What was measured:
[1] = system: S. coelicolor strain with the neo reporter gene; assay: neo reporter strain assay (kanamycin resistance under PopR-dependent promoter); type: cell-based, S. coelicolor M145; details: DNAgar, 10 μg/mL kanamycin, optical density at 48 hrs
[2] = system: M. smegmatis MC2155; assay: toxicity to M. smegmatis (growth suppression, MIC); type: cell-based; details: for suppression of growth of M. smegmatis: M. smegmatis MC2155
Procedure: To determine if the results in the S. coelicolor based assay had relevance to Mycobacteria, all fourteen compounds were tested for toxicity to M. smegmatis MC2155, a surrogate of M. tuberculosis. […] Three of these inhibitory compounds were trans-disubstituted β-lactones with unbranched alkyl substituents on both the α- and β-carbons (β-lactones 2-4). For these molecules, there was a positive correlation between the length of the alkyl group on the α-carbon and antibacterial activity. […] The compounds were subsequently shown to be inhibitors of ClpP in vitro. In Mycobacteria, ClpP inhibition is associated with killing. Previous reports of ClpP inhibition generally described suppression of virulence in pathogenic bacteria (S. aureus and L. monocytogenes).

[3] = system: M. tuberculosis H37Rv; assay: toxicity to M. tuberculosis (growth inhibition, MIC); type: cell-based

CCCCCCCC1C(=O)OC1CCC (stereo not drawn) [Compound 3]
growth of reporter strain on media supplemented with kanamycin [1]: enabled the reporter strain to grow on media supplemented with kanamycin | suppression of growth of M. smegmatis [2]: suppressed the growth of M. smegmatis

CCCCCC1C(=O)OC1CCC (stereo not drawn) [Compound 2]
growth of reporter strain on media supplemented with kanamycin [1]: enabled the reporter strain to grow on media supplemented with kanamycin | suppression of growth of M. smegmatis [2]: suppressed the growth of M. smegmatis

C=CCCCCCCCC1C(=O)OC1CCC (stereo not drawn) [Compound 4]
growth of reporter strain on media supplemented with kanamycin [1]: enabled the reporter strain to grow on media supplemented with kanamycin | suppression of growth of M. smegmatis [2]: suppressed the growth of M. smegmatis | inhibition of growth of M. tuberculosis H37Rv [3]: inhibited growth of M. tuberculosis H37Rv

CCCC1OC(=O)C1Cc1ccccc1 (stereo not drawn) [Compound 7]
growth of reporter strain on media supplemented with kanamycin [1]: enabled the reporter strain to grow on media supplemented with kanamycin | suppression of growth of M. smegmatis [2]: suppressed the growth of M. smegmatis | MIC ([2]; Mycolicibacterium smegmatis, MC2155, M. smegmatis): 10 µg/mL (≈ 49 µM) | inhibition of growth of M. tuberculosis H37Rv [3]: inhibited growth of M. tuberculosis H37Rv | MIC ([3]; Mycobacterium tuberculosis, H37RV, M. tuberculosis): 28 µg/mL (≈ 137 µM)
